Reference: ChEMBL document CHEMBL3352542, “Synthesis, biological evaluation and molecular modeling study of 2-(1,3,4-thiadiazolyl-thio and 4-methyl-thiazolyl-thio)-quinazolin-4-ones as a new class of DHFR inhibitors” (Bioorg Med Chem Lett, 2014)
Active and inactive are the calls of the source. No cut-off for these calls is given here.

Columns and labels:
[1] = biological target: T1, Dihydrofolate reductase (Bos taurus, UniProt P00376); test: Inhibition of bovine liver DHFR
T1 sequence (P00376 whole entry): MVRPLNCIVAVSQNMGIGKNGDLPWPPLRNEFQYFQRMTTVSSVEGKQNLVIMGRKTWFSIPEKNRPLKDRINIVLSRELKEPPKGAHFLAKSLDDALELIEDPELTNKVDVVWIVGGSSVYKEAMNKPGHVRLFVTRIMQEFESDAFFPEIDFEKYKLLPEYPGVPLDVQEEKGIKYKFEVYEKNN

[2] = system: Staphylococcus aureus; test: Antimicrobial activity against Staphylococcus aureus assessed as inhibition zone at 200 ug/disk after 24 hrs by disc-diffusion method; format: functional; conditions: read-out: IZ
[3] = system: Bacillus subtilis; test: Antimicrobial activity against Bacillus subtilis assessed as inhibition zone at 200 ug/disk after 24 hrs by disc-diffusion method; format: functional; conditions: read-out: IZ
[4] = system: Escherichia coli; test: Antimicrobial activity against Escherichia coli assessed as inhibition zone at 200 ug/disk after 24 hrs by disc-diffusion method; format: functional; conditions: read-out: IZ
[5] = system: Pseudomonas aeruginosa; test: Antimicrobial activity against Pseudomonas aeruginosa assessed as inhibition zone at 200 ug/disk after 24 hrs by disc-diffusion method; format: functional; conditions: read-out: IZ
[6] = system: Candida albicans; test: Antimicrobial activity against Candida albicans assessed as inhibition zone at 200 ug/disk after 24 hrs by disc-diffusion method; format: functional; conditions: read-out: IZ
[7] = system: CCRF-CEM; test: Growth inhibition of human CCRF-CEM cells at 10 uM after 48 hrs; format: functional
[8] = system: HL-60(TB); test: Growth inhibition of human HL-60(TB) cells at 10 uM after 48 hrs; format: functional
[9] = system: K562; test: Growth inhibition of human K562 cells at 10 uM after 48 hrs; format: functional
[10] = system: MOLT-4; test: Growth inhibition of human MOLT4 cells at 10 uM after 48 hrs; format: functional
[11] = system: RPMI-8226; test: Growth inhibition of human RPMI8226 cells at 10 uM after 48 hrs; format: functional
[12] = system: SR; test: Growth inhibition of human SR cells at 10 uM after 48 hrs; format: functional
[13] = system: A549; test: Growth inhibition of human A549 cells at 10 uM after 48 hrs; format: functional
[14] = system: HOP-92; test: Growth inhibition of human HOP92 cells at 10 uM after 48 hrs; format: functional
[15] = system: NCI-H226; test: Growth inhibition of human NCI-H226 cells at 10 uM after 48 hrs; format: functional
[16] = system: NCI-H23; test: Growth inhibition of human NCI-H23 cells at 10 uM after 48 hrs; format: functional
[17] = system: NCI-H460; test: Growth inhibition of human NCI-H460 cells at 10 uM after 48 hrs; format: functional
[18] = system: NCI-H522; test: Growth inhibition of human NCI-H522 cells at 10 uM after 48 hrs; format: functional
[19] = system: COLO 205; test: Growth inhibition of human COLO205 cells at 10 uM after 48 hrs; format: functional
[20] = system: HCC 2998; test: Growth inhibition of human HCC2998 cells at 10 uM after 48 hrs; format: functional
[21] = system: HCT-116; test: Growth inhibition of human HCT116 cells at 10 uM after 48 hrs; format: functional
[22] = system: HCT-15; test: Growth inhibition of human HCT15 cells at 10 uM after 48 hrs; format: functional
[23] = system: HT-29; test: Growth inhibition of human HT-29 cells at 10 uM after 48 hrs; format: functional
[24] = system: KM12; test: Growth inhibition of human KM12 cells at 10 uM after 48 hrs; format: functional
[25] = system: SW-620; test: Growth inhibition of human SW620 cells at 10 uM after 48 hrs; format: functional
[26] = system: SF-268; test: Growth inhibition of human SF268 cells at 10 uM after 48 hrs; format: functional
[27] = system: SF-295; test: Growth inhibition of human SF295 cells at 10 uM after 48 hrs; format: functional
[28] = system: SF-539; test: Growth inhibition of human SF539 cells at 10 uM after 48 hrs; format: functional
[29] = system: SNB-19; test: Growth inhibition of human SNB19 cells at 10 uM after 48 hrs; format: functional
[30] = system: SNB-75; test: Growth inhibition of human SNB75 cells at 10 uM after 48 hrs; format: functional
[31] = system: U-251; test: Growth inhibition of human U251 cells at 10 uM after 48 hrs; format: functional
[32] = system: LOX IMVI; test: Growth inhibition of human LOXIMVI cells at 10 uM after 48 hrs; format: functional
[33] = system: Malme-3M; test: Growth inhibition of human MALME-3M cells at 10 uM after 48 hrs; format: functional
[34] = system: M14; test: Growth inhibition of human M14 cells at 10 uM after 48 hrs; format: functional
[35] = system: MDA-MB-435; test: Growth inhibition of human MDA-MB-435 cells at 10 uM after 48 hrs; format: functional
[36] = system: SK-MEL-5; test: Growth inhibition of human SK-MEL-5 cells at 10 uM after 48 hrs; format: functional
[37] = system: UACC-257; test: Growth inhibition of human UACC257 cells at 10 uM after 48 hrs; format: functional
[38] = system: UACC-62; test: Growth inhibition of human UACC62 cells at 10 uM after 48 hrs; format: functional
[39] = system: OVCAR-3; test: Growth inhibition of human OVCAR3 cells at 10 uM after 48 hrs; format: functional
[40] = system: OVCAR-4; test: Growth inhibition of human OVCAR4 cells at 10 uM after 48 hrs; format: functional
[41] = system: OVCAR-5; test: Growth inhibition of human OVCAR5 cells at 10 uM after 48 hrs; format: functional
[42] = system: OVCAR-8; test: Growth inhibition of human OVCAR8 cells at 10 uM after 48 hrs; format: functional
[43] = system: NCI/ADR-RES; test: Growth inhibition of human NCI-ADR-RES cells at 10 uM after 48 hrs; format: functional
[44] = system: 786-0; test: Growth inhibition of human 786-0 cells at 10 uM after 48 hrs; format: functional
[45] = system: A498; test: Growth inhibition of human A498 cells at 10 uM after 48 hrs; format: functional
[46] = system: ACHN; test: Growth inhibition of human ACHN cells at 10 uM after 48 hrs; format: functional
[47] = system: CAKI-1; test: Growth inhibition of human CAKI-1 cells at 10 uM after 48 hrs; format: functional
[48] = system: RXF 393; test: Growth inhibition of human RXF393 cells at 10 uM after 48 hrs; format: functional
[49] = system: SN12C; test: Growth inhibition of human SN12C cells at 10 uM after 48 hrs; format: functional
[50] = system: TK-10; test: Growth inhibition of human TK10 cells at 10 uM after 48 hrs; format: functional
[51] = system: UO-31; test: Growth inhibition of human UO31 cells at 10 uM after 48 hrs; format: functional
[52] = system: PC-3; test: Growth inhibition of human PC3 cells at 10 uM after 48 hrs; format: functional
[53] = system: MCF7; test: Growth inhibition of human MCF7 cells at 10 uM after 48 hrs; format: functional
[54] = system: MDA-MB-231; test: Growth inhibition of human MDA-MB-231 cells at 10 uM after 48 hrs; format: functional
[55] = system: Hs-578T; test: Growth inhibition of human Hs 578T cells at 10 uM after 48 hrs; format: functional
[56] = system: BT-549; test: Growth inhibition of human BT549 cells at 10 uM after 48 hrs; format: functional
[57] = system: T47D; test: Growth inhibition of human T47D cells at 10 uM after 48 hrs; format: functional
[58] = system: MDA-MB-468; test: Growth inhibition of human MDA-MB-468 cells at 10 uM after 48 hrs; format: functional

COc1ccc(-n2c(Sc3sc(N)nc3C)nc3cc(OC)c(OC)cc3c2=O)cc1
IC50 [1]: 1000 nM | zone of inhibition at 200 µg/disc [2]: 8 mm | zone of inhibition at 200 µg/disc [3]: 8 mm | zone of inhibition at 200 µg/disc [4]: 8 mm | zone of inhibition at 200 µg/disc [5]: 8 mm | zone of inhibition at 200 µg/disc [6]: 8 mm | growth inhibition (GI) [7]: inactive | growth inhibition (GI) [8]: inactive | growth inhibition (GI) [9]: inactive | growth inhibition (GI) [10]: inactive | growth inhibition (GI) [11]: inactive | growth inhibition (GI) [12]: inactive | growth inhibition (GI) [13]: inactive | growth inhibition (GI) [14]: inactive | growth inhibition (GI) [15]: inactive | growth inhibition (GI) [16]: inactive | growth inhibition (GI) [17]: inactive | growth inhibition (GI) [18]: inactive | growth inhibition (GI) [19]: inactive | growth inhibition (GI) [20]: inactive | growth inhibition (GI) [21]: inactive | growth inhibition (GI) [22]: inactive | growth inhibition (GI) [23]: inactive | growth inhibition (GI) [24]: inactive | growth inhibition (GI) [25]: inactive | growth inhibition (GI) [26]: inactive | growth inhibition (GI) [27]: inactive | growth inhibition (GI) [28]: inactive | growth inhibition (GI) [29]: inactive | growth inhibition (GI) [30]: inactive | growth inhibition (GI) [31]: inactive | growth inhibition (GI) [32]: inactive | growth inhibition (GI) [33]: inactive | growth inhibition (GI) [34]: inactive | growth inhibition (GI) [35]: inactive | growth inhibition (GI) [36]: inactive | growth inhibition (GI) [37]: inactive | growth inhibition (GI) [38]: inactive | growth inhibition (GI) [39]: inactive | growth inhibition (GI) [40]: inactive | growth inhibition (GI) [41]: inactive | growth inhibition (GI) [42]: inactive | growth inhibition (GI) [43]: inactive | growth inhibition (GI) [44]: inactive | growth inhibition (GI) [45]: inactive | growth inhibition (GI) [46]: inactive | growth inhibition (GI) [47]: inactive | growth inhibition (GI) [48]: inactive | growth inhibition (GI) [49]: inactive | growth inhibition (GI) [50]: inactive | growth inhibition (GI) [51]: inactive | growth inhibition (GI) [52]: inactive | growth inhibition (GI) [53]: inactive | growth inhibition (GI) [54]: inactive | growth inhibition (GI) [55]: inactive | growth inhibition (GI) [56]: inactive | growth inhibition (GI) [57]: inactive | growth inhibition (GI) [58]: inactive

Cc1ccc2nc(Sc3sc(N)nc3C)n(-c3ccccc3)c(=O)c2c1
IC50 [1]: 5000 nM | zone of inhibition at 200 µg/disc [2]: 8 mm | zone of inhibition at 200 µg/disc [3]: 8 mm | zone of inhibition at 200 µg/disc [4]: 8 mm | zone of inhibition at 200 µg/disc [5]: 8 mm | zone of inhibition at 200 µg/disc [6]: 8 mm | growth inhibition (GI) [7]: inactive | growth inhibition (GI) [8]: inactive | growth inhibition (GI) [9]: inactive | growth inhibition (GI) [10]: inactive | growth inhibition (GI) [11]: inactive | growth inhibition (GI) [12]: inactive | growth inhibition (GI) [13]: inactive | growth inhibition (GI) [14]: inactive | growth inhibition (GI) [15]: inactive | growth inhibition (GI) [16]: inactive | growth inhibition (GI) [17]: inactive | growth inhibition (GI) [18]: inactive | growth inhibition (GI) [19]: inactive | growth inhibition (GI) [20]: inactive | growth inhibition (GI) [21]: inactive | growth inhibition (GI) [22]: inactive | growth inhibition (GI) [23]: inactive | growth inhibition (GI) [24]: inactive | growth inhibition (GI) [25]: inactive | growth inhibition (GI) [26]: inactive | growth inhibition (GI) [27]: inactive | growth inhibition (GI) [28]: inactive | growth inhibition (GI) [29]: inactive | growth inhibition (GI) [30]: inactive | growth inhibition (GI) [31]: inactive | growth inhibition (GI) [32]: inactive | growth inhibition (GI) [33]: inactive | growth inhibition (GI) [34]: inactive | growth inhibition (GI) [35]: inactive | growth inhibition (GI) [36]: inactive | growth inhibition (GI) [37]: inactive | growth inhibition (GI) [38]: inactive | growth inhibition (GI) [39]: inactive | growth inhibition (GI) [40]: inactive | growth inhibition (GI) [41]: inactive | growth inhibition (GI) [42]: inactive | growth inhibition (GI) [43]: inactive | growth inhibition (GI) [44]: inactive | growth inhibition (GI) [45]: inactive | growth inhibition (GI) [46]: inactive | growth inhibition (GI) [47]: inactive | growth inhibition (GI) [48]: inactive | growth inhibition (GI) [49]: inactive | growth inhibition (GI) [50]: inactive | growth inhibition (GI) [51]: inactive | growth inhibition (GI) [52]: inactive | growth inhibition (GI) [53]: inactive | growth inhibition (GI) [54]: inactive | growth inhibition (GI) [55]: inactive | growth inhibition (GI) [56]: inactive | growth inhibition (GI) [57]: inactive | growth inhibition (GI) [58]: inactive
